In PubChem BioAssay AID2060506 (Molecular Pharmacology Branch, DTP, NCI, 2025):

Tested on: 598228-144-R-J1-PDC complex spheroid viability
Assay: Anticancer human tumor 598228-144-R-J1-PDC patient-derived serous endometrial adenocarcinoma cell line growth inhibition [GQUAD]
Conditions: for IC50: curve of first compound; for viability, T/C: stronger effect = lower value
Method in brief: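 Viability of tumor cells grown as complex spheroids with endothelial and stromal cells, exposed to drug combinations. Top concentration at or near clinical Cmax (else 10 microM), diluted in half-log increments.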

[1] = second compound 0.0316 µM, first compound 0.0316 µM
[2] = second compound 0.0316 µM, first compound 0.1 µM
[3] = second compound 0.0316 µM, first compound 0.316 µM
[4] = second compound 0.0316 µM, first compound 1 µM
[5] = second compound 0.0316 µM, first compound 3.16 µM
[6] = second compound 0.0316 µM, first compound 10 µM
[7] = second compound 0.1 µM, first compound 0.0316 µM
[8] = second compound 0.1 µM, first compound 0.1 µM
[9] = second compound 0.1 µM, first compound 0.316 µM
[10] = second compound 0.1 µM, first compound 1 µM
[11] = second compound 0.1 µM, first compound 3.16 µM
[12] = second compound 0.1 µM, first compound 10 µM
[13] = second compound 0.316 µM, first compound 0.0316 µM
[14] = second compound 0.316 µM, first compound 0.1 µM
[15] = second compound 0.316 µM, first compound 0.316 µM
[16] = second compound 0.316 µM, first compound 1 µM
[17] = second compound 0.316 µM, first compound 3.16 µM
[18] = second compound 0.316 µM, first compound 10 µM
[19] = second compound 1 µM, first compound 0.0316 µM
[20] = second compound 1 µM, first compound 0.1 µM
[21] = second compound 1 µM, first compound 0.316 µM
[22] = second compound 1 µM, first compound 1 µM
[23] = second compound 1 µM, first compound 3.16 µM
[24] = second compound 1 µM, first compound 10 µM
[25] = second compound 3.16 µM, first compound 0.0316 µM
[26] = second compound 3.16 µM, first compound 0.1 µM
[27] = second compound 3.16 µM, first compound 0.316 µM
[28] = second compound 3.16 µM, first compound 1 µM
[29] = second compound 3.16 µM, first compound 3.16 µM
[30] = second compound 3.16 µM, first compound 10 µM
[31] = second compound 10 µM, first compound 0.0316 µM
[32] = second compound 10 µM, first compound 0.1 µM
[33] = second compound 10 µM, first compound 0.316 µM
[34] = second compound 10 µM, first compound 1 µM
[35] = second compound 10 µM, first compound 3.16 µM
[36] = second compound 10 µM, first compound 10 µM
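Further: spheroids exposed to the agents for one week before reading.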
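Wherever viability, T/C is given: percent of vehicle DMSO control viability so 100% = untreated growth.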

Cc1cccc(N(C)C(=O)C2C(O)CCN2c2nc(C)cc(C(F)(F)F)c2C#N)c1 (stereo unspecified) + Cc1[nH]c2ccc(F)cc2c1-c1nc2c3cccnc3c3ncccc3c2[nH]1
IC50 (second compound 0.0316 µM): > 10 µM
IC50 (second compound 0.1 µM): > 10 µM
IC50 (second compound 0.316 µM): > 10 µM
IC50 (second compound 1 µM): > 10 µM
IC50 (second compound 3.16 µM): < 0.0316 µM
IC50 (second compound 10 µM): > 10 µM
viability, T/C [1]: 114%
viability, T/C [2]: 113%
viability, T/C [3]: 112%
viability, T/C [4]: 82%
viability, T/C [5]: 104%
viability, T/C [6]: 100%
viability, T/C [7]: 110%
viability, T/C [8]: 112%
viability, T/C [9]: 98%
viability, T/C [10]: 94.1%
viability, T/C [11]: 104%
viability, T/C [12]: 81.7%
viability, T/C [13]: 99.8%
viability, T/C [14]: 90.3%
viability, T/C [15]: 80.9%
viability, T/C [16]: 79.2%
viability, T/C [17]: 83.9%
viability, T/C [18]: 92.7%
viability, T/C [19]: 58.6%
viability, T/C [20]: 52.7%
viability, T/C [21]: 56.2%
viability, T/C [22]: 45%
viability, T/C [23]: 71.1%
viability, T/C [24]: 57.7%
viability, T/C [25]: 40.8%
viability, T/C [26]: 45.4%
viability, T/C [27]: 52.6%
viability, T/C [28]: 34.9%
viability, T/C [29]: 39.5%
viability, T/C [30]: 36.1%
viability, T/C [31]: 68.4%
viability, T/C [32]: 44.8%
viability, T/C [33]: 53.5%
viability, T/C [34]: 67.3%
viability, T/C [35]: 58%
viability, T/C [36]: 61.6%

O=C(c1cc(Cc2n[nH]c(=O)c3ccccc23)ccc1F)N1CCN(C(=O)C2CC2)CC1 + Cc1cnc(CNC(=O)c2c(=O)c3ccc(N4CCCN(C)CC4)nc3n3c2sc2ccccc23)cn1
IC50 (second compound 0.0316 µM): > 10 µM
IC50 (second compound 0.1 µM): > 10 µM
IC50 (second compound 0.316 µM): 9.02 µM
IC50 (second compound 1 µM): > 10 µM
IC50 (second compound 3.16 µM): > 10 µM
IC50 (second compound 10 µM): < 0.0316 µM
viability, T/C [1]: 82.4%
viability, T/C [2]: 89.4%
viability, T/C [3]: 73%
viability, T/C [4]: 68.7%
viability, T/C [5]: 84.4%
viability, T/C [6]: 63.2%
viability, T/C [7]: 70.9%
viability, T/C [8]: 75.6%
viability, T/C [9]: 63.8%
viability, T/C [10]: 63.1%
viability, T/C [11]: 63%
viability, T/C [12]: 67.8%
viability, T/C [13]: 57%
viability, T/C [14]: 60.9%
viability, T/C [15]: 68.1%
viability, T/C [16]: 65.2%
viability, T/C [17]: 58.8%
viability, T/C [18]: 49.1%
viability, T/C [19]: 62.2%
viability, T/C [20]: 51.3%
viability, T/C [21]: 55.7%
viability, T/C [22]: 54.1%
viability, T/C [23]: 72.3%
viability, T/C [24]: 56%
viability, T/C [25]: 58.1%
viability, T/C [26]: 57.8%
viability, T/C [27]: 67.9%
viability, T/C [28]: 53.2%
viability, T/C [29]: 57.3%
viability, T/C [30]: 48.9%
viability, T/C [31]: 41.5%
viability, T/C [32]: 49.6%
viability, T/C [33]: 40.6%
viability, T/C [34]: 56.8%
viability, T/C [35]: 73.1%
viability, T/C [36]: 47.3%

CC1COCCN1c1cc(C2(S(C)(=N)=O)CC2)nc(-c2ccnc3[nH]ccc23)n1 (stereo unspecified) + CN(C)c1ccc(Nc2c3ccc(NC(=O)CCN4CCCC4)cc3nc3cc(NC(=O)CCN4CCCC4)ccc23)cc1
IC50 (second compound 0.0316 µM): 2.87 µM
IC50 (second compound 0.1 µM): 8.67 µM
IC50 (second compound 0.316 µM): > 10 µM
IC50 (second compound 1 µM): > 10 µM
IC50 (second compound 3.16 µM): > 10 µM
IC50 (second compound 10 µM): 1.73 µM
viability, T/C [1]: 91.7%
viability, T/C [2]: 117%
viability, T/C [3]: 102%
viability, T/C [4]: 81.5%
viability, T/C [5]: 46.5%
viability, T/C [6]: 47%
viability, T/C [7]: 97.7%
viability, T/C [8]: 122%
viability, T/C [9]: 98.7%
viability, T/C [10]: 98.3%
viability, T/C [11]: 62.7%
viability, T/C [12]: 48.3%
viability, T/C [13]: 97.1%
viability, T/C [14]: 136%
viability, T/C [15]: 85%
viability, T/C [16]: 61.8%
viability, T/C [17]: 61.6%
viability, T/C [18]: 45.9%
viability, T/C [19]: 125%
viability, T/C [20]: 96.6%
viability, T/C [21]: 103%
viability, T/C [22]: 70.8%
viability, T/C [23]: 69.2%
viability, T/C [24]: 60.1%
viability, T/C [25]: 125%
viability, T/C [26]: 89.2%
viability, T/C [27]: 99.4%
viability, T/C [28]: 69.4%
viability, T/C [29]: 61.7%
viability, T/C [30]: 57.7%
viability, T/C [31]: 95.8%
viability, T/C [32]: 88.5%
viability, T/C [33]: 89.9%
viability, T/C [34]: 64.7%
viability, T/C [35]: 33.9%
viability, T/C [36]: 26.6%
